Target: Poly [ADP-ribose] polymerase 1 (Homo sapiens, UniProt P09874)
Test: PARP Enzyme Assay: The PARP enzyme assay is set up on ice in a volume of 100 microliters consisting of 100 mM Tris-HCl (pH 8.0), 1 mM MgCl2, 28 mM KCl, 28 mM NaCl, 0.1 mg/ml of DNase I activated herring sperm DNA (Sigma, Mo.), 3.0 micromolar [3H]nicotinamide adenine dinucleotide (470 mci/mmole), 7 micrograms/ml PARP enzyme, and various concentrations of the compounds to be tested. The reaction is initiated by incubating the mixture at 25° C. After 15 minutes of incubation, the reaction is terminated by adding 500 microliters of ice cold 20% (w/v) trichloroacetic acid. The precipitate formed is transferred onto a glass fiber filter (Packard Unifilter-GF/B) and washed three times with ethanol. After the filter is dried, the radioactivity is determined by scintillation counting.

Chain of Poly [ADP-ribose] polymerase 1 (P09874 whole entry): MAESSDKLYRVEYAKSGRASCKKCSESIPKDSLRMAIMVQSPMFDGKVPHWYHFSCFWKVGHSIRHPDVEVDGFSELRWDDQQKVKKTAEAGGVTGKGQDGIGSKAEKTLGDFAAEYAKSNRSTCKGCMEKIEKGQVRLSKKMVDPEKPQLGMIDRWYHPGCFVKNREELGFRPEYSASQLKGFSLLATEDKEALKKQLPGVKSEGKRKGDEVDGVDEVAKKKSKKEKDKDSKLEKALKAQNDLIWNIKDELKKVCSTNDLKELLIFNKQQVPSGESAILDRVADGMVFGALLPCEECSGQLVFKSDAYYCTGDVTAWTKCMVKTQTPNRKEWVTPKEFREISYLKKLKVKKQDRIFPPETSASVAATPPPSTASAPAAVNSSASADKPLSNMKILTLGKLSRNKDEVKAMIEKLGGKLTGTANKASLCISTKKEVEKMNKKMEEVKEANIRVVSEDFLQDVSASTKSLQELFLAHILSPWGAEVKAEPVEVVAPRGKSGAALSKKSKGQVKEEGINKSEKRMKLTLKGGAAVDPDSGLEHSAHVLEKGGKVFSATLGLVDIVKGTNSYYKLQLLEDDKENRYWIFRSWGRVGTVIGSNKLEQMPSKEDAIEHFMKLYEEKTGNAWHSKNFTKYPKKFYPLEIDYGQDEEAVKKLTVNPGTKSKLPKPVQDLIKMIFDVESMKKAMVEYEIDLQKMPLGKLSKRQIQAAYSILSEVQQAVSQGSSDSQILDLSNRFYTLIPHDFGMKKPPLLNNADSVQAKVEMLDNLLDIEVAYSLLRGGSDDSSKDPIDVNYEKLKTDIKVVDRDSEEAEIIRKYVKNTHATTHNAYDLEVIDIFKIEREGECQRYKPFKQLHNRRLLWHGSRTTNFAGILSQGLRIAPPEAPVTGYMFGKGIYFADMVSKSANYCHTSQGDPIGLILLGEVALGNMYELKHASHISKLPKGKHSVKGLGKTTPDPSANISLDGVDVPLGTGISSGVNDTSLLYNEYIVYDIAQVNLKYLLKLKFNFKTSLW

`CCN(CC)CCN(CC)Cc1ccc2c(c1)-c1n[nH]c(=O)c3cccc(c13)O2` showed an IC50 of 0.5 µM.

Source: ChEMBL document CHEMBL3639262, “Diazabenzo[de] anthracen-3-one compounds and methods for inhibiting PARP” (2013)
